Assay results reported in patent US11896615B2, “Immunotherapy methods and compositions involving tryptophan metabolic pathway modulators” (Juno Therapeutics, Inc., priority 2016, dated 2024).
“Also recorded” adds a separate entry of the source.

How the values were obtained:
[1] = system: anti-CD19 CAR-expressing T cells; experiment: Effect of tryptophan metabolites on CAR T proliferation with IDO1- target cells; type: cell-based, human; settings: 96 hours; for CAR T cell proliferation: CD19.Daudi target cells, 0 to 100 μM; for CAR T cell numbers (CD3+ cells per well): CD19.K562 target cells, 6.25 to 100 μM
Description: Cells were stained for surface expression of CD4 and CD8. Proliferation of T cell populations was determined by flow cytometry, based on the extent of dilution of the CellTrace™ violet dye. […] The number of CD3^+ cells per well was determined using CountBright beads.

[2] = system: anti-CD19 CAR-expressing T cells; experiment: Proliferation of anti-CD19 CAR T cells co-cultured with IDO1- target cells (CD19.Daudi, K562.CD19); type: cell-based, human; settings: co-culture with IDO1- cells, various concentrations
Description: (§1) Similar methods were used to assess the effect of the IDO1 inhibitor on proliferation of CAR-expressing T cells following co-culture of anti-CD19 CAR-expressing cells with either IDO1^+ cells (A549.CD19) or IDO1^− cells (K562.CD19). […] The average number of CAR T cell divisions was calculated based on peaks in dye dilution, and proliferation of CD4^+ and CD8^+ subsets was compared.

CD19.A549 = experiment: Cytolytic activity of anti-CD19 CAR T cells (Incucyte, NucRed-labeled targets); type: cell-based, human; settings: 0 to 1000 nM, 0.25:1 E:T, up to approximately 340 hours
Description: Lysis of target cells was measured over time using the Incucyte quantitative cell analysis system (Essen BioScience) by assessing the staining intensity of cells for the NucRed dye.

[3] = system: anti-CD19 CAR-expressing T cells; experiment: Sustained expansion of anti-CD19 CAR T cells (% confluency over time); type: cell-based, human
Description: Expansion of anti-CD19 expressing CAR cells following co-culture with A549 adenocarcinoma human alveolar basal epithelial cells transduced with human CD19 (CD19.A549 cells) was assessed for over 10 days. […] Expansion was assessed based on % confluency in the culture as determined over time. […] The IDO1 inhibitor-promoted increase in expansion was sustained for more than 10 days in culture. The results were consistent with a conclusion that IDO-upregulation and/or IDO-dependent signaling can occur or be promoted following CAR-T antigen-specific activation and result in dampening of proliferation of the CAR-T cells, e.g., over a 5- or 10-day period, and that inhibition of IDO can in some contexts rescue such inhibition.

[4] = system: anti-CD19 CAR-expressing T cells; experiment: Cytokine release in co-culture supernatants; type: cell-based, human; settings: for GM-CSF level in supernatant / IFNγ level in supernatant / TNFα level in supernatant: epacadostat 10, 100 or 1000 nM or supplemental tryptophan, compared to no addition; for IL-2 levels in supernatant: for up to 72 hours, levels decreased at 96 hours
[5] = system: CD4+ and CD8+ CAR-expressing T cells; experiment: CD25 surface expression on CD4+ and CD8+ CAR-expressing T cells (flow cytometry); type: cell-based, human
[6] = system: anti-ROR1 CAR-expressing T cells; experiment: Proliferation of anti-ROR1 CAR T cells co-cultured with CD19.A549 cells; type: cell-based, human; settings: 250 nM, E:T 3:1, 96 hours, compared to absence of inhibitor
Excerpt: Similar methods were used to assess the effect of the IDO1 inhibitor on proliferation of anti-ROR1 CAR-expressing T cells cultured in the presence of antigen-expressing target cells.

CAR T cells = experiment: CAR T cell proliferation in the presence of IDO1+ HS-5 bystander cells; type: cell-based, human; settings: with or without HS-5 cells, 96 hours, various concentrations
Description: Proliferation of CAR T cells in the presence of IDO1-expressing bone marrow stromal cells or an IDO1 inhibitor was determined.

[7] = system: anti-CD19 CAR-expressing T cells; experiment: Proliferation of anti-CD19 CAR T cells co-cultured with IDO1+ CD19.A549 cells (CellTrace violet dilution, bead counts, microscopy); type: cell-based, human
Description: Cells were stained for expression of CD4 and CD8 and proliferation of T cell populations determined by flow cytometry, based on the extent of dilution of the CellTrace™ Violet dye.
Similar methods were used to assess proliferation of anti-CD19 CAR-expressing T cells generated from three different healthy donors following co-culture with CD19-expressing A549 target cells (CD19.A549).
The number of CAR T cells in each well was determined using CountBright Absolute Counting beads.
as §1
Cells were visualized at 72 hours and 120 hours.

[8] = system: anti-CD19 CAR-expressing T cells; experiment: CAR T cell counts and proliferation with IDO1 inhibitor or supplemental tryptophan in co-culture with CD19.A549; type: cell-based, human; settings: 5 μg/mL added every 24 hours, 96 hours with IDO1+ A549.CD19, compared to no treatment
Description: Proliferation was assessed by flow cytometry, and CAR+ T cell count in each well was determined.

[9] = system: anti-CD19 CAR-expressing T cells; experiment: Recovery from tryptophan starvation; type: cell-based, human; settings: supplemental tryptophan added after starvation, out to 96 hours
Description: Anti-CD19 CAR-expressing T cells, generated as described in Example 1, were cultured in tryptophan starvation conditions (chemically defined tryptophan-free media) for 24, 48, 72 or 96 hours (24, 48, 72 or 96 hr Trp starv.). After tryptophan starvation for the indicated time, supplemental tryptophan was added to the cultures. The cells then were cultured in the presence of tryptophan until the cells were harvested at 24, 48, 72 or 96 hours. As a control, reflecting tryptophan sufficient conditions, cells were cultured in tryptophan-sufficient media for each respective time period (complete media). The number of CD3^+ cells per well was assessed. Intracellular production of interferon-gamma (IFNγ) and tumor necrosis factor alpha (TNFα) was assessed by intracellular cytokine staining, and the percentage of CD4+ or CD8+ cells positive for cytokine accumulation was determined.

[10] = system: anti-CD19 CAR-expressing cells; experiment: Intracellular cytokines after re-exposure to antigen following tryptophan starvation; type: cell-based, human; settings: tryptophan supplementation in the subsequent culture
Description: Effect of tryptophan starvation on CAR-T function (proliferation, cytokine production) following subsequent re-exposure to antigen was assessed. […] The cells were harvested, counted and re-cultured with fresh CD19-expressing A549 target cells (CD19.A549) in tryptophan-depleted media (media from the “no tx” cultures at 96 hours) with or without supplemented tryptophan. Intracellular levels of interferon-gamma (IFNγ) and interlekukin-2 (IL-2) were assessed by intracellular cytokine staining, and the percentage of CD4+ or CD8+ cells deemed positive for the given intracellular cytokine production was determined.

CAR-expressing T cells = experiment: CAR T function in tryptophan-depleted media with supplemental tryptophan; type: cell-based, human
Description: Effects of tryptophan starvation on antigen-induced function of CAR-T cells were assessed. CAR-expressing T cells labeled with CellTrace™ violet were co-cultured with target cells (K562 human myelogenous leukemia target cells transduced with CD19 (CD19.K562)) that had been observed not to induce IDO1-expression, in tryptophan-depleted media, with or without the addition of various concentrations of supplemental tryptophan. Tryptophan-containing media was used as a control (Trp Control). Target cell count and proliferation (assessed by flow cytometry via CTV dye dilution; MFI=mean fluorescence intensity).
A similar study was carried out to assess effects of tryptophan-starvation, but in which CAR-mediated function was induced using an agonistic anti-idiotype antibody specific for the CAR as opposed to antigen-expressing target cells. Anti-CD19 CAR-expressing cells, generated substantially as described in Example 1, were stimulated for 96 hours using plate-bound anti-idiotypic agonistic antibody, in tryptophan-depleted media, alone or supplemented with various concentrations of tryptophan. The number of CD3^+ cells per well was determined. Representative results from exemplary studies are shown in FIG. 15D and FIG. 15E (results from three different donors). […]

[11] = system: JeKo-1, Daudi, Raji and Nalm-6 cells; experiment: IDO1 expression in other CD19+ tumor cell lines after IFNγ incubation; type: cell-based, human; settings: incubation with IFNγ under similar conditions
Description: (§2) A549 adenocarcinoma human alveolar basal epithelial cells transduced with human CD19 (CD19.A549 cells, which may also referred to as A549.CD19 cells) were assessed for expression of indoleamine-pyrrole 2,3-dioxygenase 1 (IDO1) following stimulation with interferon-gamma (IFNγ). CD19.A549 cells were stimulated with IFNγ for 24 or 48 hours and IDO1 levels were assessed by flow cytometry using an anti-IDO antibody. […] Increased IDO1 expression was not detected in other CD19^+ tumor cell lines in this assay, including JeKo-1, Daudi, Raji and Nalm-6 cells, following incubation with IFNγ under similar conditions.

[12] = system: HS-5 human bone marrow stromal cells; experiment: IDO1 expression in HS-5 bone marrow stromal cells after IFNγ; type: cell-based; settings: 20 ng/mL recombinant human IFNγ, 24 hours
Description: Expression level of Indoleamine-Pyrrole 2,3-Dioxygenase 1 (IDO1) was determined in bone marrow stromal cells upon stimulation by interferon-gamma (IFNγ) or with co-incubation with CAR-expressing T cells. Bone marrow stromal cells are exemplary of bystander cells, e.g., non-tumor cells, present in the TME.
HS-5 human bone marrow stromal cells were stimulated with 20 ng/mL recombinant human IFNγ for 24 hours.

CD19.A549 cells = experiment: IDO1 expression in CD19.A549 cells after IFNγ stimulation (flow cytometry); type: cell-based, human
Description: as §2
CD19.A549 cells were cultured with various concentrations of recombinant human IFNγ.

dendritic cells = experiment: IDO1 expression in dendritic cells after IFNγ and/or LPS stimulation; type: cell-based; settings: dendritic cells (DC), 24 hours stimulation
Description: To assess whether myeloid cells present in the TME, including tumor-associated macrophages and dendritic cells, can be induced to express IDO1, the expression level of IDO1 in dendritic cells and macrophages upon stimulation by interferon-gamma (IFNγ) or lipopolysaccharide (LPS) was determined by flow cytometry. Dendritic cells were subject to monoculture with GM-CSF and interleukin-4 (IL-4), and macrophages were subject to monoculture with M-CSF, for 6 days. After monoculture, the cells were stimulated with IFNγ and/or LPS for 24 hours, and IDO1 expression was determined by flow cytometry.

[13] = supplemental tryptophan or 100 nM or 1000 nM epacadostat, co-culture with CD19.A549

## Nc1c(O)cccc1C(=O)O [3-HAA, 3-hydroxyanthranilic acid]
[1]
  CAR T cell proliferation: did not inhibit CAR T cell proliferation
  CAR T cell numbers (CD3+ cells per well): did not substantially affect CAR T cell numbers

## Nc1ccccc1C(=O)C[C@H](N)C(=O)O [L-Kynurenine]
[1]
  CAR T cell proliferation: did not inhibit CAR T cell proliferation
  CAR T cell numbers (CD3+ cells per well): did not substantially affect CAR T cell numbers

## NS(=O)(=O)NCCNc1nonc1C(=NO)Nc1ccc(F)c(Br)c1 [epacadostat, 4-({2-[(aminosulfonyl)amino]ethyl}amino)-N-(3-bromo-4-fluorophenyl)-N′-hydroxy-1,2,5-oxadiazole-3-carboximidamide]
[2]
  proliferation of CD4+ and CD8+ CAR-expressing T cells: not when co-cultured with IDO1^− cells (Daudi)
CD19.A549
  NucRed dye intensity of target cells (AUC): dose-dependent reduction of NucRed dye intensity
[3]; 0 to 1000 nM, up to approximately 340 hours
  expansion of CAR-expressing T cells (% confluency): increasing expansion of CAR-expressing T cells
[3]; in culture with CD19.A549
  duration of inhibitor-promoted increase in expansion: over 10 days
[4]; 48 hours, 1:1 E:T with CD19.A549, various concentrations
  TNFα production: increased TNFα production
[4]
  GM-CSF level in supernatant: increased level
  IFNγ level in supernatant: increased level
  TNFα level in supernatant: increased level
  IL-2 levels in supernatant: increased
[5]; 96 hours co-culture with IDO1+ CD19.A549 cells, 1:1 E:T
  CD25 surface expression (MFI): reduced
[5]; 96 hours co-culture with IDO1- CD19.Daudi cells
  CD25 surface expression: not affected
[5]; [13]
  CD25 surface expression (MFI): reduced
[6]
  number of CAR T cells: higher number of CAR T cells
CAR T cells
  proliferation of CAR T cells: not substantially affected
[7]; 250 nM, 96 hours, three donors, compared to absence of inhibitor
  number of CAR T cells per well: higher number CAR T cells
[7]; 1 μM, 120 hours, 1:1 E:T, compared to no inhibitor
  CAR-expressing T cells visualized by microscopy: large increase in CAR-expressing T cells
[7]; Homo sapiens, co-culture with A549 cells (IDO1+), 1:1 E:T, read-out: estimated EC50 (CAR T proliferation)
  EC50: ~223 nM
[7]; co-culture with IDO1+ CD19.A549 cells, 96 hours, various concentrations
  proliferation of CD4+ and CD8+ CAR-expressing T cells: dose-dependent increase in proliferation; also recorded: increased proliferation

## N[C@@H](Cc1c[nH]c2ccccc12)C(=O)O [tryptophan]
[4]
  GM-CSF level in supernatant: increased level
  IFNγ level in supernatant: increased level
  TNFα level in supernatant: increased level
  IL-2 levels in supernatant: increased
[5]; [13]
  CD25 surface expression (MFI): reduced
[8]
  proliferation of CAR-T cells: restored proliferation of the CAR-T cells
[9]
  proliferative capacity after tryptophan starvation: did not completely restore proliferative capacity
[10]
  reduction in cytokine production (IFNγ, IL-2) after re-encounter with target cells: partially restored
CAR-expressing T cells; CD19.K562 target cells, tryptophan-depleted media
  inhibitory effect of tryptophan starvation on antigen-specific function of CAR T cells: reversed
CAR-expressing T cells; plate-bound anti-idiotypic agonistic antibody, 96 hours
  inhibition of CAR-mediated function by tryptophan starvation (CD3+ cells per well): restored

## IFNγ: interferon-gamma (IFNγ), recombinant human
[11]
  IDO1 expression: not detected
[12]
  IDO1 expression: increase of IDO1 expression
CD19.A549 cells; IFNγ stimulation for 24 and 48 hours, compared to unstimulated cells
  IDO1 expression: increased expression of endogenous IDO1
CD19.A549 cells; various concentrations of recombinant human IFNγ
  IDO1 expression (MFI): dose-responsive increase in IDO1 expression
Dendritic cells
  IDO1 expression: induced IDO1 expression
